Experimental data published in PubChem BioAssay AID1963836 (Molecular Pharmacology Branch, DTP, NCI, 2024).

Tested on: 857933-349-R-J2-PDC complex spheroid viability
Assay: Anticancer human tumor 857933-349-R-J2-PDC patient-derived colon adenocarcinoma cell line growth inhibition [POLQ]
Conditions: for IC50: curve of first compound; for viability, T/C: stronger effect = lower value
Procedure, shortened: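 Patient-derived tumour cells were co-cultured with HUVEC and mesenchymal stem cells as multicellular spheroids at 37 °C. They were treated with POLQ inhibitors (novobiocin, ART-558, RP6685) alone or combined with other agents. Top concentrations were at or near clinical Cmax (otherwise 10 microM; SN-38 at 1 microM), decreasing in half-log steps.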

[1] = second compound 0.0316 µM, first compound 0.0316 µM
[2] = second compound 0.0316 µM, first compound 0.1 µM
[3] = second compound 0.0316 µM, first compound 0.316 µM
[4] = second compound 0.0316 µM, first compound 1 µM
[5] = second compound 0.0316 µM, first compound 3.16 µM
[6] = second compound 0.0316 µM, first compound 10 µM
[7] = second compound 0.1 µM, first compound 0.0316 µM
[8] = second compound 0.1 µM, first compound 0.1 µM
[9] = second compound 0.1 µM, first compound 0.316 µM
[10] = second compound 0.1 µM, first compound 1 µM
[11] = second compound 0.1 µM, first compound 3.16 µM
[12] = second compound 0.1 µM, first compound 10 µM
[13] = second compound 0.316 µM, first compound 0.0316 µM
[14] = second compound 0.316 µM, first compound 0.1 µM
[15] = second compound 0.316 µM, first compound 0.316 µM
[16] = second compound 0.316 µM, first compound 1 µM
[17] = second compound 0.316 µM, first compound 3.16 µM
[18] = second compound 0.316 µM, first compound 10 µM
[19] = second compound 1 µM, first compound 0.0316 µM
[20] = second compound 1 µM, first compound 0.1 µM
[21] = second compound 1 µM, first compound 0.316 µM
[22] = second compound 1 µM, first compound 1 µM
[23] = second compound 1 µM, first compound 3.16 µM
[24] = second compound 1 µM, first compound 10 µM
[25] = second compound 3.16 µM, first compound 0.0316 µM
[26] = second compound 3.16 µM, first compound 0.1 µM
[27] = second compound 3.16 µM, first compound 0.316 µM
[28] = second compound 3.16 µM, first compound 1 µM
[29] = second compound 3.16 µM, first compound 3.16 µM
[30] = second compound 3.16 µM, first compound 10 µM
[31] = second compound 10 µM, first compound 0.0316 µM
[32] = second compound 10 µM, first compound 0.1 µM
[33] = second compound 10 µM, first compound 0.316 µM
[34] = second compound 10 µM, first compound 1 µM
[35] = second compound 10 µM, first compound 3.16 µM
[36] = second compound 10 µM, first compound 10 µM
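Note: spheroids exposed to compounds for seven days before readout.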

COc1cc2cc(C(=O)CCC(=O)O)sc2cc1OC + Nc1ccc(C#CCN(C(=O)Cc2ncc(C(F)(F)F)cc2C(F)(F)F)c2ccc(F)cc2)nn1
IC50 (second compound 0.0316 µM): > 10 µM | IC50 (second compound 0.1 µM): > 10 µM | IC50 (second compound 0.316 µM): > 10 µM | IC50 (second compound 1 µM): > 10 µM | IC50 (second compound 3.16 µM): > 10 µM | IC50 (second compound 10 µM): > 10 µM | viability, T/C [1]: 103% | viability, T/C [2]: 110% | viability, T/C [3]: 108% | viability, T/C [4]: 111% | viability, T/C [5]: 100% | viability, T/C [6]: 104% | viability, T/C [7]: 100% | viability, T/C [8]: 106% | viability, T/C [9]: 101% | viability, T/C [10]: 110% | viability, T/C [11]: 108% | viability, T/C [12]: 97.5% | viability, T/C [13]: 96.5% | viability, T/C [14]: 97.3% | viability, T/C [15]: 98.2% | viability, T/C [16]: 92.4% | viability, T/C [17]: 106% | viability, T/C [18]: 96% | viability, T/C [19]: 103% | viability, T/C [20]: 93.3% | viability, T/C [21]: 97.5% | viability, T/C [22]: 109% | viability, T/C [23]: 110% | viability, T/C [24]: 89.1% | viability, T/C [25]: 102% | viability, T/C [26]: 98.7% | viability, T/C [27]: 90.7% | viability, T/C [28]: 89.7% | viability, T/C [29]: 104% | viability, T/C [30]: 103% | viability, T/C [31]: 93.7% | viability, T/C [32]: 78.3% | viability, T/C [33]: 98.9% | viability, T/C [34]: 97.6% | viability, T/C [35]: 108% | viability, T/C [36]: 78.4%

COc1cc(C2c3cc4c(cc3C(OC3OC5COC(C)OC5C(O)C3O)C3COC(=O)C23)OCO4)cc(OC)c1O (stereo not drawn) + COC1C(OC(N)=O)C(O)C(Oc2ccc3c(O)c(NC(=O)c4ccc(O)c(CC=C(C)C)c4)c(=O)oc3c2C)OC1(C)C
IC50 (second compound 0.0316 µM): 0.352 µM | IC50 (second compound 0.1 µM): 0.399 µM | IC50 (second compound 0.316 µM): 0.488 µM | IC50 (second compound 1 µM): 0.453 µM | IC50 (second compound 3.16 µM): 0.358 µM | IC50 (second compound 10 µM): 0.386 µM | viability, T/C [1]: 80.7% | viability, T/C [2]: 88.3% | viability, T/C [3]: 51.3% | viability, T/C [4]: 46.2% | viability, T/C [5]: 36.1% | viability, T/C [6]: 28.7% | viability, T/C [7]: 71.1% | viability, T/C [8]: 84.7% | viability, T/C [9]: 53.5% | viability, T/C [10]: 42.3% | viability, T/C [11]: 35.5% | viability, T/C [12]: 30.4% | viability, T/C [13]: 74.1% | viability, T/C [14]: 79.3% | viability, T/C [15]: 54.6% | viability, T/C [16]: 41% | viability, T/C [17]: 34.7% | viability, T/C [18]: 29.9% | viability, T/C [19]: 81.9% | viability, T/C [20]: 71.3% | viability, T/C [21]: 54.6% | viability, T/C [22]: 39.6% | viability, T/C [23]: 34.2% | viability, T/C [24]: 29.9% | viability, T/C [25]: 88.2% | viability, T/C [26]: 99% | viability, T/C [27]: 52.1% | viability, T/C [28]: 37.5% | viability, T/C [29]: 30.3% | viability, T/C [30]: 30.1% | viability, T/C [31]: 94.5% | viability, T/C [32]: 65.7% | viability, T/C [33]: 54.6% | viability, T/C [34]: 39.8% | viability, T/C [35]: 37.6% | viability, T/C [36]: 32.1%

O=C(Nc1ccc(O)c(NS(=O)(=O)c2ccc(F)cc2)c1)c1ccc(-c2ccccc2)cc1 + COC1C(OC(N)=O)C(O)C(Oc2ccc3c(O)c(NC(=O)c4ccc(O)c(CC=C(C)C)c4)c(=O)oc3c2C)OC1(C)C
IC50 (second compound 0.0316 µM): > 10 µM | IC50 (second compound 0.1 µM): > 10 µM | IC50 (second compound 0.316 µM): > 10 µM | IC50 (second compound 1 µM): > 10 µM | IC50 (second compound 3.16 µM): > 10 µM | IC50 (second compound 10 µM): > 10 µM | viability, T/C [1]: 70.1% | viability, T/C [2]: 105% | viability, T/C [3]: 92.3% | viability, T/C [4]: 89.2% | viability, T/C [5]: 80.7% | viability, T/C [6]: 78.6% | viability, T/C [7]: 116% | viability, T/C [8]: 95.9% | viability, T/C [9]: 94.1% | viability, T/C [10]: 92.3% | viability, T/C [11]: 114% | viability, T/C [12]: 101% | viability, T/C [13]: 96% | viability, T/C [14]: 85.5% | viability, T/C [15]: 65.9% | viability, T/C [16]: 65.5% | viability, T/C [17]: 113% | viability, T/C [18]: 84.1% | viability, T/C [19]: 79.5% | viability, T/C [20]: 91.1% | viability, T/C [21]: 81.1% | viability, T/C [22]: 72.9% | viability, T/C [23]: 109% | viability, T/C [24]: 80.7% | viability, T/C [25]: 101% | viability, T/C [26]: 86.9% | viability, T/C [27]: 113% | viability, T/C [28]: 99.2% | viability, T/C [29]: 85.3% | viability, T/C [30]: 61.5% | viability, T/C [31]: 76.2% | viability, T/C [32]: 88.7% | viability, T/C [33]: 99.8% | viability, T/C [34]: 82.8% | viability, T/C [35]: 77.9% | viability, T/C [36]: 68.8%

O=C(Nc1ccc(O)c(NS(=O)(=O)c2ccc(F)cc2)c1)c1ccc(-c2ccccc2)cc1 + Cc1cccc(N(C)C(=O)C2C(O)CCN2c2nc(C)cc(C(F)(F)F)c2C#N)c1
IC50 (second compound 0.0316 µM): > 10 µM | IC50 (second compound 0.1 µM): > 10 µM | IC50 (second compound 0.316 µM): > 10 µM | IC50 (second compound 1 µM): > 10 µM | IC50 (second compound 3.16 µM): > 10 µM | IC50 (second compound 10 µM): > 10 µM | viability, T/C [1]: 90.2% | viability, T/C [2]: 85.2% | viability, T/C [3]: 88.2% | viability, T/C [4]: 90.6% | viability, T/C [5]: 90.3% | viability, T/C [6]: 92.5% | viability, T/C [7]: 97.7% | viability, T/C [8]: 86.2% | viability, T/C [9]: 87% | viability, T/C [10]: 97.5% | viability, T/C [11]: 91.9% | viability, T/C [12]: 90.8% | viability, T/C [13]: 97.7% | viability, T/C [14]: 85.5% | viability, T/C [15]: 97.8% | viability, T/C [16]: 93.4% | viability, T/C [17]: 88.9% | viability, T/C [18]: 70.8% | viability, T/C [19]: 99.1% | viability, T/C [20]: 82% | viability, T/C [21]: 96.8% | viability, T/C [22]: 95.4% | viability, T/C [23]: 114% | viability, T/C [24]: 93% | viability, T/C [25]: 97.9% | viability, T/C [26]: 95.9% | viability, T/C [27]: 97.6% | viability, T/C [28]: 93.4% | viability, T/C [29]: 96.8% | viability, T/C [30]: 77.7% | viability, T/C [31]: 95.3% | viability, T/C [32]: 105% | viability, T/C [33]: 91% | viability, T/C [34]: 90% | viability, T/C [35]: 88.6% | viability, T/C [36]: 73.8%
